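In this assay, cells in 96-well plates receive the compound at five concentrations for 48 hours. Endpoints are linearly interpolated between the surrounding concentrations. At the GI50, growth is halved. The concentration for full growth arrest is given as TGI.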
Legend:
Assay in all cases: growth of human tumour cells (NCI), 48 h; in the data active means GI50 below about 0.43 µM; inactive means the rest
[1] = system: 786-0 renal
[2] = system: A498 renal
[3] = system: A549 NSCLC
[4] = system: ACHN renal
[5] = system: BT-549 breast
[6] = system: CAKI-1 renal
[7] = system: CCRF-CEM leukemia
[8] = system: COLO 205 colon
[9] = system: DU-145 prostate
[10] = system: EKVX NSCLC
[11] = system: HCC-2998 colon
[12] = system: HCT-15 colon
[13] = system: HL-60(TB) leukemia
[14] = system: HOP-92 NSCLC
[15] = system: HS 578T breast
[16] = system: HT29 colon
[17] = system: IGROV1 ovarian
[18] = system: K-562 leukemia
[19] = system: KM12 colon
[20] = system: LOX IMVI melanoma
[21] = system: MALME-3M melanoma
[22] = system: MCF7 breast
[23] = system: MDA-MB-231 breast
[24] = system: MDA-MB-435
[25] = system: MOLT-4 leukemia
[26] = system: NCI-H226 lung
[27] = system: NCI-H23 lung
[28] = system: NCI-H460 lung
[29] = system: NCI-H522 lung
[30] = system: NCI/ADR-RES ovarian
[31] = system: OVCAR-3 ovarian
[32] = system: OVCAR-4 ovarian
[33] = system: OVCAR-5 ovarian
[34] = system: OVCAR-8 ovarian
[35] = system: PC-3 prostate
[36] = system: RPMI-8226 leukemia
[37] = system: RXF 393 renal
[38] = system: SF-268 CNS
[39] = system: SF-295 CNS
[40] = system: SF-539 CNS
[41] = system: SK-MEL-2 melanoma
[42] = system: SK-MEL-28 melanoma
[43] = system: SK-MEL-5 melanoma
[44] = system: SK-OV-3 ovarian
[45] = system: SN12C renal
[46] = system: SNB-19 CNS
[47] = system: SNB-75 CNS
[48] = system: SR leukemia
[49] = system: SW-620 colon
[50] = system: T-47D breast
[51] = system: TK-10 renal
[52] = system: U251 CNS
[53] = system: UACC-257 melanoma
[54] = system: UACC-62 melanoma
[55] = system: UO-31 renal
[56] = system: HCT-116 colon
[57] = system: HOP-62 NSCLC
[58] = system: M14 melanoma

CC(C)(C)C(=O)Nc1ccccc1I(=O)=O
> 100 µM: TGI [1] | TGI [2] | TGI [3] | TGI [4] | TGI [5] | TGI [6] | TGI [7] | TGI [8] | TGI [9] | TGI [10] | TGI [11] | TGI [12] | TGI [13] | TGI [14] | TGI [15] | TGI [16] | TGI [17] | TGI [18] | TGI [19] | TGI [20] | TGI [21] | TGI [22] | TGI [23] | TGI [24] | TGI [25] | TGI [26] | TGI [27] | TGI [28] | TGI [29] | TGI [30] | TGI [31] | TGI [32] | TGI [33] | TGI [34] | TGI [35] | TGI [36] | TGI [37] | TGI [38] | TGI [39] | TGI [40] | TGI [41] | TGI [42] | TGI [43] | TGI [44] | TGI [45] | TGI [46] | TGI [47] | TGI [48] | TGI [49] | TGI [50] | TGI [51] | TGI [52] | TGI [53] | TGI [54] | TGI [55]
inactive: GI50 [1] > 100 µM | GI50 [2] > 100 µM | GI50 [3] > 100 µM | GI50 [4] > 100 µM | GI50 [5] > 100 µM | GI50 [6] > 100 µM | GI50 [7] > 100 µM | GI50 [8] > 100 µM | GI50 [9] > 100 µM | GI50 [10] > 100 µM | GI50 [11] > 100 µM | GI50 [12] > 100 µM | GI50 [13] > 100 µM | GI50 [14] > 100 µM | GI50 [15] > 100 µM | GI50 [16] > 100 µM | GI50 [17] > 100 µM | GI50 [18] > 100 µM | GI50 [19] > 100 µM | GI50 [20] > 100 µM | GI50 [21] > 100 µM | GI50 [22] > 100 µM | GI50 [23] > 100 µM | GI50 [24] > 100 µM | GI50 [25] > 100 µM | GI50 [26] > 100 µM | GI50 [27] > 100 µM | GI50 [28] > 100 µM | GI50 [29] > 100 µM | GI50 [30] > 100 µM | GI50 [31] > 100 µM | GI50 [32] > 100 µM | GI50 [33] > 100 µM | GI50 [34] > 100 µM | GI50 [35] > 100 µM | GI50 [36] > 100 µM | GI50 [37] > 100 µM | GI50 [38] > 100 µM | GI50 [39] > 100 µM | GI50 [40] > 100 µM | GI50 [41] > 100 µM | GI50 [42] > 100 µM | GI50 [43] > 100 µM | GI50 [44] > 100 µM | GI50 [45] > 100 µM | GI50 [46] > 100 µM | GI50 [47] > 100 µM | GI50 [48] 26 µM | GI50 [49] > 100 µM | GI50 [50] > 100 µM | GI50 [51] > 100 µM | GI50 [52] > 100 µM | GI50 [53] > 100 µM | GI50 [54] > 100 µM | GI50 [55] > 100 µM

C=C1CC[C@@]2(C#N)[C@H]3[C@H](CC[C@@H]2C)[C@@H](C)C[C@@H](CC(C)(C)C#N)[C@H]13
22.1 µM: TGI [49]
1.68 µM: TGI [39]
40.8 µM: TGI [21]
32.6 µM: TGI [27]
inactive: GI50 [1] 2.33 µM | GI50 [2] 6.6 µM | GI50 [3] 3.52 µM | GI50 [4] 1.03 µM | GI50 [5] 1.23 µM | GI50 [6] 1.73 µM | GI50 [7] 1.62 µM | GI50 [8] 1.61 µM | GI50 [10] 1.12 µM | GI50 [11] 2.95 µM | GI50 [12] 0.604 µM | GI50 [13] 2.48 µM | GI50 [57] 2.33 µM | GI50 [15] 0.637 µM | GI50 [16] 0.469 µM | GI50 [17] 4.77 µM | GI50 [18] 0.46 µM | GI50 [19] 0.471 µM | GI50 [58] 1.48 µM | GI50 [21] 5.23 µM | GI50 [22] 0.785 µM | GI50 [23] 6.1 µM | GI50 [24] 2.06 µM | GI50 [25] 3.02 µM | GI50 [26] 2.43 µM | GI50 [27] 1.06 µM | GI50 [28] 0.877 µM | GI50 [29] 10.8 µM | GI50 [30] 2.87 µM | GI50 [31] 2.88 µM | GI50 [32] 2.14 µM | GI50 [34] 0.785 µM | GI50 [36] 0.589 µM | GI50 [37] 5.85 µM | GI50 [38] 2.34 µM | GI50 [40] 0.609 µM | GI50 [41] 6.67 µM | GI50 [42] 2.63 µM | GI50 [43] 1.54 µM | GI50 [44] 6.6 µM | GI50 [45] 5.71 µM | GI50 [46] 10.1 µM | GI50 [48] 1.57 µM | GI50 [49] 4.65 µM | GI50 [50] 2.24 µM | GI50 [51] 0.969 µM | GI50 [52] 2.86 µM | GI50 [53] 8.3 µM | GI50 [54] 2.45 µM
24.6 µM: TGI [30]
57.9 µM: TGI [29]
12.9 µM: TGI [43]
35.3 µM: TGI [38]
40.3 µM: TGI [48]
33.7 µM: TGI [34]
16.1 µM: TGI [16]
34.8 µM: TGI [3]
> 100 µM: TGI [6] | TGI [18]
59.4 µM: TGI [17]
72.1 µM: TGI [25]
16.2 µM: TGI [9]
28.8 µM: TGI [31]
11.2 µM: TGI [56]
29.8 µM: TGI [52]
22.8 µM: TGI [37]
44.2 µM: TGI [42]
77.9 µM: TGI [44]
12.5 µM: TGI [58]
31.5 µM: TGI [51]
18.8 µM: TGI [5]
14.7 µM: TGI [4]
24.1 µM: TGI [26]
70.1 µM: TGI [46]
58.1 µM: TGI [2]
16.7 µM: TGI [54]
30.5 µM: TGI [35]
14.4 µM: TGI [8]
64.8 µM: TGI [45]
40.2 µM: TGI [41]
19.3 µM: TGI [55]
active: GI50 [9] 0.337 µM | GI50 [56] 0.229 µM | GI50 [14] 0.2 µM | GI50 [20] 0.413 µM | GI50 [35] 0.283 µM | GI50 [39] 0.171 µM | GI50 [47] 0.215 µM | GI50 [55] 0.363 µM
55 µM: TGI [15]
33.5 µM: TGI [7]
23.1 µM: TGI [12]
35.8 µM: TGI [23]
41 µM: TGI [32]
12.8 µM: TGI [28]
24.3 µM: TGI [57]
95.7 µM: TGI [24]
14.5 µM: TGI [20]
20.6 µM: TGI [11]
18.9 µM: TGI [19]
56.4 µM: TGI [53]
10.9 µM: TGI [50]
15.8 µM: TGI [22]
0.68 µM: TGI [14]
17.5 µM: TGI [40]
29.5 µM: TGI [13]
26.3 µM: TGI [36]
45.7 µM: TGI [10]
23.3 µM: TGI [1]
0.705 µM: TGI [47]

— PubChem BioAssay (NCI)
